According to US20200222474A1, “COMPOSITIONS AND METHODS FOR INCREASING PHYTOCHEMICAL BIOAVAILABLITY AND BIOACTIVITY” (North Carolina State University, priority 2017, published 2020):

Tested on: L. acidophilus NCFM
Assay: RNA-seq transcriptional analysis of L. acidophilus NCFM growing on plant glycosides
Type: cell-based, Lactobacillus acidophilus
[1] = LBA1481 D-ribose-binding protein precursor, COG G
[2] = LBA1482 Ribose ABC transporter, COG G
[3] = LBA1483 Ribose ABC transporter ATP binding protein, COG G
[4] = LBA1484 D-ribose pyranase, COG G
[5] = LBA1494 Lincomycin-resistance protein, COG GEPR
[6] = LBA1607 Phosphatidylserine decarboxylase precursor, COG I
[7] = LBA1632 NAD-dependent aldehyde dehydrogenase, COG C
[8] = LBA1653 Nicotinamide mononucleotide, COG H
[9] = LBA1684 Putative PTS system IIA component, COG G
[10] = LBA1689 Maltose-6′-phosphate Oucosidase, COG G
[11] = LBA1700 Transcriptional regulator-type, COG K
[12] = LBA1701 Melibiose operon regulatory protein, COG K
[13] = LBA1705 PTS system IIBC component, COG G
[14] = LBA1708 Transcriptional antiterminator, COG K
[15] = LBA1710 Thermostable pullulanase, COG G
[16] = LBA1812 Alpha-glucosidase II, COG G
[17] = LBA1870 Maltose phosphorylase, COG G
[18] = LBA1872 Oligo-1,6-glucosidase, COG G
[19] = LBA1955 Transcription regulator family protein, COG K
[20] = gene LBA0046 (Hypothetical protein)
[21] = gene LBA0149 (Putative nucleotide-binding protein)
[22] = gene LBA0263 (Hypothetical protein)

## OCc1ccccc1O[C@@H]1O[C@H](CO)[C@@H](O)[C@H](O)[C@H]1O [Salicin]
[1]
  Log2 differential normalized TPM ratio compared to glucose: 0.4
  Log2 differential normalized TPM ratio compared to lactose: −0.4
  Transcripts per million (rpm): 6.4 rpm
[2]
  Log2 differential normalized TPM ratio compared to glucose: 0.7
  Log2 differential normalized TPM ratio compared to lactose: −0.4
  Transcripts per million (rpm): 6.1 rpm
[3]
  Log2 differential normalized TPM ratio compared to glucose: 0.4
  Log2 differential normalized TPM ratio compared to lactose: −0.7
  Transcripts per million (rpm): 4.2 rpm
[4]
  Log2 differential normalized TPM ratio compared to glucose: 0.2
  Log2 differential normalized TPM ratio compared to lactose: −0.5
  Transcripts per million (rpm): 4.5 rpm
LBA1485 Ribokinase, COG G
  Log2 differential normalized TPM ratio compared to glucose: 0.5
  Log2 differential normalized TPM ratio compared to lactose: −0.3
  Transcripts per million (rpm): 4.5 rpm
[5]
  Log2 differential normalized TPM ratio compared to glucose: 0.6
  Log2 differential normalized TPM ratio compared to lactose: 0.5
  Transcripts per million (rpm): 8.2 rpm
[6]
  Log2 differential normalized TPM ratio compared to glucose: 0.9
  Log2 differential normalized TPM ratio compared to lactose: −0.2
  Transcripts per million (rpm): 37.9 rpm
[7]
  Log2 differential normalized TPM ratio compared to glucose: 2
  Log2 differential normalized TPM ratio compared to lactose: 0.2
  Transcripts per million (rpm): 300.2 rpm
[8]
  Log2 differential normalized TPM ratio compared to glucose: 1.3
  Log2 differential normalized TPM ratio compared to lactose: 0.7
  Transcripts per million (rpm): 618.8 rpm
[9]
  Log2 differential normalized TPM ratio compared to glucose: 2.6
  Log2 differential normalized TPM ratio compared to lactose: 0.6
  Transcripts per million (rpm): 76.9 rpm
[10]
  Log2 differential normalized TPM ratio compared to glucose: 3.7
  Log2 differential normalized TPM ratio compared to lactose: 2.2
  Transcripts per million (rpm): 47.4 rpm
[11]
  Log2 differential normalized TPM ratio compared to glucose: 0.1
  Log2 differential normalized TPM ratio compared to lactose: −0.4
  Transcripts per million (rpm): 23 rpm
[12]
  Log2 differential normalized TPM ratio compared to glucose: 1
  Log2 differential normalized TPM ratio compared to lactose: 0.2
  Transcripts per million (rpm): 84.1 rpm
[13]
  Log2 differential normalized TPM ratio compared to glucose: 1.3
  Log2 differential normalized TPM ratio compared to lactose: 0.4
  Transcripts per million (rpm): 8.4 rpm
[14]
  Log2 differential normalized TPM ratio compared to glucose: 1.2
  Log2 differential normalized TPM ratio compared to lactose: −0.2
  Transcripts per million (rpm): 1.3 rpm
[15]
  Log2 differential normalized TPM ratio compared to glucose: 0.5
  Log2 differential normalized TPM ratio compared to lactose: 0.1
  Transcripts per million (rpm): 10.8 rpm
LBA1723 Transposase, COG L
  Log2 differential normalized TPM ratio compared to glucose: 0.5
  Log2 differential normalized TPM ratio compared to lactose: 0.2
  Transcripts per million (rpm): 75.5 rpm
[16]
  Log2 differential normalized TPM ratio compared to glucose: 2.2
  Log2 differential normalized TPM ratio compared to lactose: 0.1
  Transcripts per million (rpm): 75.4 rpm
[17]
  Log2 differential normalized TPM ratio compared to glucose: −0.9
  Log2 differential normalized TPM ratio compared to lactose: 0.2
  Transcripts per million (rpm): 55.6 rpm
LBA1871 Neopullulanase, COG G
  Log2 differential normalized TPM ratio compared to glucose: 0.9
  Log2 differential normalized TPM ratio compared to lactose: 0.2
  Transcripts per million (rpm): 5.1 rpm
[18]
  Log2 differential normalized TPM ratio compared to glucose: 1
  Log2 differential normalized TPM ratio compared to lactose: 0.6
  Transcripts per million (rpm): 6.2 rpm
LBA1873 Acetate kinase, COG C
  Log2 differential normalized TPM ratio compared to glucose: 1.2
  Log2 differential normalized TPM ratio compared to lactose: −0.2
  Transcripts per million (rpm): 8.3 rpm
LBA1878 Glycerol kinase, COG C
  Log2 differential normalized TPM ratio compared to glucose: 0.1
  Log2 differential normalized TPM ratio compared to lactose: 0
  Transcripts per million (rpm): 9.3 rpm
[19]
  Log2 differential normalized TPM ratio compared to glucose: −0.3
  Log2 differential normalized TPM ratio compared to lactose: 0.1
  Transcripts per million (rpm): 428.6 rpm
RNA-seq, compared to glucose
  number of up-regulated genes: 33 genes
RNA-seq, up-regulated genes not shared with the other PGs
  number of uniquely induced genes: 0
[20]
  Log2 differential normalized TPM ratio compared to glucose: −0.2
  Log2 differential normalized TPM ratio compared to lactose: −0.9
  Transcripts per million (rpm): 270.7 rpm
[21]
  Log2 differential normalized TPM ratio compared to glucose: 1.2
  Log2 differential normalized TPM ratio compared to lactose: 0.4
  Transcripts per million (rpm): 1141 rpm
[22]
  Log2 differential normalized TPM ratio compared to glucose: 0.9
  Log2 differential normalized TPM ratio compared to lactose: 0.1
  Transcripts per million (rpm): 30.2 rpm
Gene LBA0282 (Hypothetical protein)
  Log2 differential normalized TPM ratio compared to glucose: 0.7
